As a reminder, the Emax is the greatest response seen or fitted, relative to the assay's reference. A word on the EC50: it is the concentration needed to bring the measured effect to its halfway point. Low values mean a more potent agent, high ones a less potent agent.

Common to all, as to assay type: cell-based
In one test the target is ACKR3 (Homo sapiens, UniProt P25106). As to the kind of experiment: ACKR3 β-arrestin recruitment assay (PathHunter, β-galactosidase complementation). The conditions noted are these: for Emax: read-out: ACKR3 β-arrestin % CXCL12 Emax ± SEM; for EC50: stable human ACKR3-β-arrestin-2-CHO cells, mean ± SEM, at least two independent experiments in duplicate. The method, then: (§1) Compounds were evaluated for agonist activity using a β-arrestin recruitment assay based on β-galactosidase complementation (PathHunter, DiscoverX). Stable human ACKR3-β-arrestin-2-CHO cells (DiscoverX) were plated into 96-well white-walled assay plates at 15,000 cells/well in Cell Plating Reagent 2 (DiscoveRx) and incubated at 37° C., 5% CO2 overnight. The next day, test compounds were prepared at 10× concentration in DPBS/1% DMSO and 10 μL was added to the cells. CXCL-12 was included as a positive agonist control. Following a 1.5 hr incubation at 37° C., 55 μL of detection reagent (prepared according to the manufacturer's specifications) was added to each well. The plate was incubated at room temperature for 1 hr, after which luminescence was measured at 1 sec/well using an EnSpire multimode plate reader (PerkinElmer). Relative luminescence units (RLU) were plotted against the log of compound concentration and data were fit to a three-parameter logistic curve to generate EC50 values (GraphPad Prism). EC50 and % Emax values are reported as means±SEM and are the result of at least two independent experiments performed in duplicate. The CXCR4 assay was run similarly except that human CXCR4-C2Cl2 cells (DiscoverX) were plated at 20,000 cells/well in Cell Plating Reagent 9. The next day, the media was removed and cells were incubated with Cell Plating Reagent 4 for 3 hrs, after which the assay was conducted as described above.
In general terms: Recruitment of arrestin is a read-out of receptor activation apart from second messengers.

Another test deals with DOR (Homo sapiens, UniProt P41143). As to the kind of experiment: DOR calcium mobilization agonist/antagonist screen (CHO-RD-HGA16 cells). More on the design: host or cells: CHO-RD-HGA16. The conditions noted are these: single concentration; for Emax: CHO-RD-HGA16, agonist screen, control agonist DPDPE; for DOR Calcium % DPDPE Inhibition: antagonist screen, vs EC60 of DPDPE. On the procedure: (§2) Compounds were evaluated for kappa (KOR), mu (MOR), and delta (DOR) opioid receptor agonist and antagonist activity in three individual cell lines overexpressing Gαq16 (CHO-RD-HGA16, Molecular Devices) and the human kappa, mu, and delta opioid receptors, respectively. The day before the assay, cells were plated into 96-well black-walled assay plates at 30,000 cells/well in Ham's F12 supplemented with 10% fetal bovine serum, and 100 units of penicillin and streptomycin. The cells were incubated overnight at 37° C., 5% CO2. Prior to the assay, Calcium 5 dye (Molecular Devices) was reconstituted according to the manufacturer's instructions. The reconstituted dye was diluted 1:40 in pre-warmed (37° C.) assay buffer (1×HBSS, 20 mM HEPES, 2.5 mM probenecid, pH 7.4 at 37° C.). Growth medium was removed and the cells were gently washed with 100 μL of pre-warmed (37° C.) assay buffer. The cells were incubated for 45 minutes at 37° C., 5% CO2 in 200 μL of the diluted Calcium 5 dye. For the agonist screen, a single concentration of each test compound and receptor-specific controls (U69,593, DAMGO, and DPDPE for KOR, MOR, and DOR, respectively) were prepared at 10× the desired final concentration in 1% DMSO/assay buffer, aliquoted into a 96-well polystyrene plate, and warmed to 37° C. After the dye-loading incubation period, pretreatment solution was added to each well (25 μL of 9% DMSO/assay buffer) and, after 15 min, the plate was read with a FlexStation II (Molecular Devices). Calcium-mediated changes in fluorescence were monitored every 1.52 seconds over a 60 second time period, with the FlexStation II adding 50 μL of test compounds at the 19 second time point (excitation at 485 nm, detection at 525 nm). Peak kinetic reduction (SoftMax, Molecular Devices) relative fluorescence units (RFU) were used to calculate % control agonist Emax with the equation % Emax=(test compound RFU/control agonist RFU)×100. For the antagonist screens, the same procedure was followed except that the pretreatment solution consisted of the test compounds (prepared at […] the desired final concentration in 9% DMSO/assay buffer) and the FlexStation added the EC60 concentration (prepared at 10× the desired final concentration in 1% DMSO/assay buffer) of each respective control agonist. Peak RFU were used to calculate % control EC60 inhibition with the equation % inhibition=((EC60 RFU−test compound RFU)/EC60 RFU)×100. When IC50 determinations were made, the same antagonist screen procedure was followed except that cells were pretreated with 8-pt concentration-response curves of the test compounds. Peak RFU were plotted against the log of compound concentration using non-linear regression analysis to generate IC50 values (GraphPad Prism). Each test sample was analyzed in duplicate in two independent experiments.
On the technique in general: Calcium assays in cells follow changes in intracellular calcium, usually with a dye or a luminescent sensor.

Another test addresses KOR (Homo sapiens, UniProt P41145). The test can be described thus: KOR calcium mobilization agonist/antagonist screen (CHO-RD-HGA16 cells). The arrangement: host or cells: CHO-RD-HGA16. To be noted: single concentration; for Emax: CHO-RD-HGA16, agonist screen, control agonist U69,593; for KOR Calcium % U69, 593 Inhibition: antagonist screen, vs EC60 of U69,593. On the procedure: as §2

The target of the next test is T1, human CXCR4 (Homo sapiens, UniProt P61073).
T1 construct: host or cells: C2C12
As to the kind of experiment: CXCR4 β-arrestin recruitment assay (PathHunter). The conditions noted are these: human CXCR4-C2Cl2 cells, relative to CXCL-12. The method, then:
as §1

The next test has as its target T2, CaV 3.2 (Homo sapiens, UniProt O95180).
T2 construct: expressed in transfected cells
The test can be described thus: CaV 3.2 calcium assay in stable human CaV3.2-HEK293 cells. To be noted: control agonist calcium chloride. The method, then: as §2
Compounds were evaluated for activity at CaV 3.2 using stable human CaV3.2-HEK293 cells and the control agonist calcium chloride. The day before the assay, cells were plated into 96-well black-walled assay plates coated with poly-D-lysine in DMEM-F12 supplemented with 10% fetal bovine serum, 100 units penicillin/streptomycin, and 500 μM sodium pyruvate, and incubated at 37° C., 5% CO2 overnight. Prior to the assay, Calcium 5 dye (Molecular Devices) was reconstituted according to the manufacturer instructions. The reconstituted dye was diluted 1:10 in pre-warmed (37° C.) assay buffer (1×HBSS, […], […], pH 7.4 at 37° C.). The cells were incubated for 45 minutes at 37° C., 5% CO2 in 200 μL of the diluted Calcium 5 dye. Compounds were prepared as described above and the plate was read with a FLIPR Tetra (Molecular Devices). Calcium-mediated changes in fluorescence were monitored every 1 second over a 60 second time period, with the Tetra adding 25 μL of appropriate compound at the 10 second time point (excitation at 470-495 nm, detection at 515-575 nm). […]

The next test concerns the target MOR (Homo sapiens, UniProt P35372). As to the kind of experiment: MOR calcium mobilization agonist/antagonist screen (CHO-RD-HGA16 cells). More on the design: host or cells: CHO-RD-HGA16. To be noted: single concentration; for Emax: CHO-RD-HGA16, agonist screen, control agonist DAMGO; for MOR Calcium % DAMGO Inhibition: antagonist screen, vs EC60 of DAMGO. On the procedure:
as §2

Sequence of DOR (P41143 whole entry): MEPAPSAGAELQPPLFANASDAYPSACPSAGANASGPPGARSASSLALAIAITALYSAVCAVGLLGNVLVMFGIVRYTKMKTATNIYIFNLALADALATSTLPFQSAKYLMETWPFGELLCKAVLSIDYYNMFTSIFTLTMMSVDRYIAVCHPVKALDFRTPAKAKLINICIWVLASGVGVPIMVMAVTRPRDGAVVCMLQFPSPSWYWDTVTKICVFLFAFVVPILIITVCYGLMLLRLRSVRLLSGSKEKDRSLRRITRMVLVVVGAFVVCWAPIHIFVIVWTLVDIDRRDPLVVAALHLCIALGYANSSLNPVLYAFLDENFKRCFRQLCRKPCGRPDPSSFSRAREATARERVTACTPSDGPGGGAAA
Sequence of ACKR3 (P25106 whole entry): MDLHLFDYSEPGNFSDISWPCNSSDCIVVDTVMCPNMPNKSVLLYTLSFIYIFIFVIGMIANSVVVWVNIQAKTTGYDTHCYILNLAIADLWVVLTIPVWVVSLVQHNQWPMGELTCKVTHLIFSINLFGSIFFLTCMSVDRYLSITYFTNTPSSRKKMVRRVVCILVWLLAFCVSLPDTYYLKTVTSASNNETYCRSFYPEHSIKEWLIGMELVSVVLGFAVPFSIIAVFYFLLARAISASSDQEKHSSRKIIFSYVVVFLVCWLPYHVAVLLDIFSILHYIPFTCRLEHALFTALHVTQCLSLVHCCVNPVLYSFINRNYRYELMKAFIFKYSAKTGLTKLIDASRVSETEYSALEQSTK
T1 sequence (P61073 whole entry): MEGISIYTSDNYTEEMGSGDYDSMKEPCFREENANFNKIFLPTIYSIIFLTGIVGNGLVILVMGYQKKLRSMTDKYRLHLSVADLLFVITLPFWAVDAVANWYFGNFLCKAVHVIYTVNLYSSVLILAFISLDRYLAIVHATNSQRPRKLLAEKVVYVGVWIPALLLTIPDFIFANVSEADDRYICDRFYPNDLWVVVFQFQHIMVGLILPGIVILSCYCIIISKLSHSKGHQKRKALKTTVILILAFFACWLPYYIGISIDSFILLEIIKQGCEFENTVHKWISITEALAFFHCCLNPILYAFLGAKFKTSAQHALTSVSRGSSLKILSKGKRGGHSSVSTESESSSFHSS
T2 sequence (O95180 whole entry): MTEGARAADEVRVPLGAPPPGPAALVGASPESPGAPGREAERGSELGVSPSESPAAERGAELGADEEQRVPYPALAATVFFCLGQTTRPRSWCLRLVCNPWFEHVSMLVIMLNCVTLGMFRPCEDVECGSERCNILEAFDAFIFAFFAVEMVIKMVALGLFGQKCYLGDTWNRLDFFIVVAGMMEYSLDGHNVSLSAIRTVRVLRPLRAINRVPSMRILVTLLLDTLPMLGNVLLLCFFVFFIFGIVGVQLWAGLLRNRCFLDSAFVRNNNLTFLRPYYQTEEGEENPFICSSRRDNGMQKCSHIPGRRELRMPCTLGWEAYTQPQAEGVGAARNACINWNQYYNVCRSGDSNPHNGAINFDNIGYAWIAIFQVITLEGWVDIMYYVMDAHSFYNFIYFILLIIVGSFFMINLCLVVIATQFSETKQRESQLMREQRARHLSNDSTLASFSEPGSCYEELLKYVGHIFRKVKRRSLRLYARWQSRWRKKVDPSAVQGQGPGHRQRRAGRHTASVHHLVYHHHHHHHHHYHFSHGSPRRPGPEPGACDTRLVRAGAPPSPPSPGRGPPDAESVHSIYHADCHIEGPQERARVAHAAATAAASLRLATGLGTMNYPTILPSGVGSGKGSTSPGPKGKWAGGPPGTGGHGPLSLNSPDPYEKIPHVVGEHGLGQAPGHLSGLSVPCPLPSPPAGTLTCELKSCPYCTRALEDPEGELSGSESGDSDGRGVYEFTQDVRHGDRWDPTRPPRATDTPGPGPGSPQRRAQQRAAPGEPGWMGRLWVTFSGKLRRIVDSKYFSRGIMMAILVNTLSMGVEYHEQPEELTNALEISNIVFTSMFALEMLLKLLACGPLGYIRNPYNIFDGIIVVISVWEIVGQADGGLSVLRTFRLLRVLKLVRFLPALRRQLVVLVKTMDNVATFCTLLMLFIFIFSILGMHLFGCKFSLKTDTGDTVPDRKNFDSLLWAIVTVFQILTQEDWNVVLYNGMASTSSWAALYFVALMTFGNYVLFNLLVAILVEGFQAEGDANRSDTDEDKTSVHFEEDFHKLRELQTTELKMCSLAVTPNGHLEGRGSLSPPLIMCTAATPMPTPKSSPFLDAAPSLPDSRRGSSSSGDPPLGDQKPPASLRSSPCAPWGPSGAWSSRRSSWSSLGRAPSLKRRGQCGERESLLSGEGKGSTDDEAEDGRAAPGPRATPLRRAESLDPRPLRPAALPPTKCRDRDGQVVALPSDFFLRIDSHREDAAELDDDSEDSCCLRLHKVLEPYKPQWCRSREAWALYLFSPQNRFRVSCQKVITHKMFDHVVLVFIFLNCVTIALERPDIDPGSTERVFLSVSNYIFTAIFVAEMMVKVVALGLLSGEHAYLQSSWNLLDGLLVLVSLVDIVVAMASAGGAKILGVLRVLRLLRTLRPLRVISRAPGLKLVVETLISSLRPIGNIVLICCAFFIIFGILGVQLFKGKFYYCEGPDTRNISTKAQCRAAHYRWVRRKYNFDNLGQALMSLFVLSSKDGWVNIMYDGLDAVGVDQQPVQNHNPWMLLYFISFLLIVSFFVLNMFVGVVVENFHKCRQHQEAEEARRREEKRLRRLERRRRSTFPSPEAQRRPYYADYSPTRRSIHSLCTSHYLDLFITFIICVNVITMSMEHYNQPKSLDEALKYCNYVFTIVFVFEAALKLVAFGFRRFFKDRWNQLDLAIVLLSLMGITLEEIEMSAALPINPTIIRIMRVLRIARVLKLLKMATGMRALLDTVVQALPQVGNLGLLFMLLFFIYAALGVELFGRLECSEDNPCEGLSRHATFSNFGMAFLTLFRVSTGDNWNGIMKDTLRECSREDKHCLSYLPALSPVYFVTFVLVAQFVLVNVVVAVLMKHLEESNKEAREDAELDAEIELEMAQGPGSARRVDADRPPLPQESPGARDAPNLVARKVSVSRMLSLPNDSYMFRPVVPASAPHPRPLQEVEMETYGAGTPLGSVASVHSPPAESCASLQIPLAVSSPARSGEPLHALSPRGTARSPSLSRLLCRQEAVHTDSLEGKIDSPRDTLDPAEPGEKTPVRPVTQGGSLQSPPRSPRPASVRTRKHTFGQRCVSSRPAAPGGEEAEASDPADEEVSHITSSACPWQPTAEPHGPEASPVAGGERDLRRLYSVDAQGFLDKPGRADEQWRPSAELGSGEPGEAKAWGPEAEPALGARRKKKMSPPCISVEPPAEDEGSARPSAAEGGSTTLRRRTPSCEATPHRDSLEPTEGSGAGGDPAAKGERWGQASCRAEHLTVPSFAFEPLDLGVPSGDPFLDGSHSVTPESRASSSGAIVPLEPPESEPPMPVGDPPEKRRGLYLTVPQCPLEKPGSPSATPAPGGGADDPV
Sequence of MOR (P35372 whole entry): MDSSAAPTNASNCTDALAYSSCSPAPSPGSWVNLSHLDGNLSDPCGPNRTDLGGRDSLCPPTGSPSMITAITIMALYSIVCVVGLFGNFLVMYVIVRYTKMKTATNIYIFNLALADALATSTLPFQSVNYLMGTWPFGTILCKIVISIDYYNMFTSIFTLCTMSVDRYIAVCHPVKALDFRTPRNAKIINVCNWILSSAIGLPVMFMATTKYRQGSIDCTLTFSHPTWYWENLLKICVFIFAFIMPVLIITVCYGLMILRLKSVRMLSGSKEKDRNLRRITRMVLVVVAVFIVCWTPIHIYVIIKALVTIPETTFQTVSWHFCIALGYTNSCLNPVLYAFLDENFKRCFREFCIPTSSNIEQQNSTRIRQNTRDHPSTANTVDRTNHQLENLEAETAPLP
Sequence of KOR (P41145 whole entry): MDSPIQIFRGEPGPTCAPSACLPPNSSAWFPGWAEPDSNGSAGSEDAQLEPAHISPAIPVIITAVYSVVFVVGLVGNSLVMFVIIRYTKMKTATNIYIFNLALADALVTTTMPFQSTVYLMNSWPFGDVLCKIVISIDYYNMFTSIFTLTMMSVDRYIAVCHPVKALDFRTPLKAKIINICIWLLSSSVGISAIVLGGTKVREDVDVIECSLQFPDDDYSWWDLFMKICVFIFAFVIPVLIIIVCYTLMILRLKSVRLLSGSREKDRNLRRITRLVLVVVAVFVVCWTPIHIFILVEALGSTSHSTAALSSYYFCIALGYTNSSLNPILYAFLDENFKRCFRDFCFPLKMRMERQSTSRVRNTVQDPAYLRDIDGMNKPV

Consider `C/C=C1/CN(CCc2ccc(F)cc2)CC[C@H]1C(=O)c1cc2ccccc2[nH]1` [WW-9, [(3E,4R)-3-ethylidene-1-(4-fluorophenethyl)piperidin-4-yl](1H-indol-2-yl)methanone], for which, on ACKR3, the Emax is 132 ± 6% and the response was half-maximal at 2.07 ± 0.18 µM (EC50). Further, on DOR, the Emax was determined as 0% and the “DOR Calcium % DPDPE Inhibition” value is listed as 31%. In addition, at KOR, the Emax was found to be 1% and the “KOR Calcium % U69, 593 Inhibition” value is reported as 23%. In addition, the “CXCR4 β-arrestin % CXCL-12Emax (n = 2)” value at human CXCR4 was determined as 10%. For the same compound, the “CaV 3.2 % CaCl2 Inhibition” value at CaV 3.2 is 45%. For the same compound, at MOR, the Emax amounted to 0% and the “MOR Calcium % DAMGO Inhibition” value came out at 34%.

As for `C/C=C1/CN(Cc2ccc(OC)cc2)CC[C@H]1C(=O)c1cc2ccccc2[nH]1` [WW-7, (3E,4R)-(3-ethylidene-1-(4-methoxybenzyl)piperidin-4-yl)(1H-indol-2-yl)methanone], on ACKR3, the Emax stood at 139 ± 2% and it took 1.87 ± 0.096 µM to reach a half-maximal effect (EC50). In addition, on DOR, the Emax was determined as 6% and the “DOR Calcium % DPDPE Inhibition” value was 16%. In addition, on KOR, the maximum response (Emax) amounted to 14% and the “KOR Calcium % U69, 593 Inhibition” value is given as 38%. Besides, the “CXCR4 β-arrestin % CXCL-12Emax (n = 2)” value at human CXCR4 amounted to 0%. The “CaV 3.2 % CaCl2 Inhibition” value on CaV 3.2 was determined as 50%. For the same compound, at MOR, the Emax was determined as 2% and the “MOR Calcium % DAMGO Inhibition” value is on record as 14%.

Consider `C/C=C1/CN2CC[C@H]1C(=O)c1[nH]c3ccc(OC)cc3c1C2` [WW-5, (4E,5R)-10-methoxy-4-ethylidene-1,4,5,7-tetrahydro-2,5-ethanoazocino[4,3-b]indol-6(3H)-one], for which, on ACKR3, the Emax was 171 ± 6% and the EC50 is 8.15 ± 0.59 µM. Besides, on DOR, the Emax was 2% and the “DOR Calcium % DPDPE Inhibition” value is 22%. At KOR, the Emax is 20% and the “KOR Calcium % U69, 593 Inhibition” value came to 17%. The “CXCR4 β-arrestin % CXCL-12Emax (n = 2)” value on human CXCR4 is on record as 7%. Besides, on CaV 3.2, the “CaV 3.2 % CaCl2 Inhibition” value was 9%. On MOR, the Emax was found to be 1% and the “MOR Calcium % DAMGO Inhibition” value was found to be 13%.

As for `C/C=C1/CN(CC(C)C)CC[C@H]1C(=O)c1cc2ccccc2[nH]1` [WW-10, [(3E,4R)-3-ethylidene-1-(2-methylpropyl)piperidin-4-yl](1H-indol-2-yl)methanone], the concentration for a half-maximal effect (EC50) on ACKR3 is more than 10 µM. Besides, on DOR, the Emax was 4% and the “DOR Calcium % DPDPE Inhibition” value is 5%. At KOR, the Emax came to 7% and the “KOR Calcium % U69, 593 Inhibition” value was 8%. Also, the “CXCR4 β-arrestin % CXCL-12Emax (n = 2)” value on human CXCR4 is on record as 2%. On CaV 3.2, the “CaV 3.2 % CaCl2 Inhibition” value is reported as −3%. Also, at MOR, the Emax worked out at 1% and the “MOR Calcium % DAMGO Inhibition” value was 0%.

For `CCCCCN1CC[C@H](NC(=O)c2cc3ccc(-c4ccc(F)cc4)cc3[nH]2)C1` [WW-44, 6-(4-Fluorophenyl)-N-[(3S)-1-pentylpyrrolidin-3-yl]-1H-indole-2-carboxamide], at ACKR3, the Emax was 110 ± 7% and the EC50 worked out at 4.14 ± 0.11 µM. In addition, at human CXCR4, the “CXCR4 β-arrestin % CXCL-12Emax (n = 2)” value worked out at 26%.

For `C/C=C1/CN(Cc2ccc(OC)cc2)CC[C@H]1C(O)c1cc2cc(-c3ccc(F)cc3)ccc2n1S(=O)(=O)c1ccccc1` (stereo partly drawn) [WW-69], at ACKR3, the Emax came out at 79 ± 6% and it took 1.68 ± 0.3 µM to reach a half-maximal effect (EC50). At human CXCR4, the “CXCR4 β-arrestin % CXCL-12Emax (n = 2)” value was 11%.

`CCOC(=O)C(c1[nH]c2ccccc2c1C=O)C1CCN(S(=O)(=O)c2ccc(C)cc2)C/C1=N\O` (stereo not drawn) [WW-65, ethyl (3-formyl-1H-indol-2-yl){(3Z)-3-(hydroxyamino)-1-[(4-methylphenyl)sulfonyl]piperidin-4-yl}acetate] returned an EC50 at ACKR3 of more than 10 µM. Also, the “CXCR4 β-arrestin % CXCL-12Emax (n = 2)” value on human CXCR4 is 11%.

`CCCCCN1CCN(Cc2cc3ccccc3[nH]2)CC1` [WW-21, 2-[(4-pentylpiperazin-1-yl)methyl]-1H-indole]: the EC50 at ACKR3 was more than 10 µM. Moreover, at human CXCR4, the “CXCR4 β-arrestin % CXCL-12Emax (n = 2)” value stood at 10%.

Turning to `C/C=C1/CN(CCCCC)CC[C@H]1C(=O)c1cc2cc(-c3ccc(F)cc3)ccc2[nH]1` [WW-73, [(3E,4R)-3-ethylidene-1-pentylpiperidin-4-yl][5-(4-fluorophenyl)-1H-indol-2-yl]methanone], the EC50 at ACKR3 was more than 10 µM. In addition, the “CXCR4 β-arrestin % CXCL-12Emax (n = 2)” value on human CXCR4 was 9%.

As to `C/C=C1/CN(CCCCCN)CC[C@H]1C(=O)c1cc2ccccc2[nH]1` [WW-59, (3E,4R)-(3-ethylidene-1-(5-aminopentyl)piperidin-4-yl)(1H-indol-2-yl)methanone], at ACKR3, the EC50 was more than 10 µM. At human CXCR4, the “CXCR4 β-arrestin % CXCL-12Emax (n = 2)” value is reported as 9%.

As for `C/C=C1/CN(CCCCCC(=O)OC)CC[C@H]1C(=O)c1cc2ccccc2[nH]1` [WW-71, Methyl 6-[(3E,4R)-3-ethylidene-4-(1H-indol-2-ylcarbonyl)piperidin-1-yl]hexanoate], the EC50 at ACKR3 is more than 10 µM. Moreover, the “CXCR4 β-arrestin % CXCL-12Emax (n = 2)” value at human CXCR4 stood at 4%.

In turn, `CCCCCN1CC[C@H](NC(=O)c2cc3c(OC)c(OC)c(OC)cc3[nH]2)C1` [WW-47, 4,5,6-Trimethoxy-N-[(3S)-1-pentylpyrrolidin-3-yl]-1H-indole-2-carboxamide] displayed an EC50 on ACKR3 of more than 10 µM. Besides, the “CXCR4 β-arrestin % CXCL-12Emax (n = 2)” value at human CXCR4 is 18%.

For `C/C=C1/CN(CCCCCCC)CC[C@H]1C(=O)c1cc2ccccc2[nH]1` [WW-67, [(3E,4R)-3-ethylidene-1-heptylpiperidin-4-yl](1H-indol-2-yl)methanone], at ACKR3, the Emax turned out to be 135 ± 4% and the response was half-maximal at 2.46 ± 0.27 µM (EC50). The “CXCR4 β-arrestin % CXCL-12Emax (n = 2)” value on human CXCR4 is reported as 12%.

Source of the values: patent US20240059688A1, “CONOLIDINE ANALOGUES AS SELECTIVE ACKR3 MODULATORS FOR THE TREATMENT OF CANCER” (Luxembourg Institute of Health (LIH), priority 2020, published 2024).
